Laboratory results published in PubChem BioAssay (NCI).
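Exposure lasted 48 hours, with cells grown in 96-well plates and compounds tested at five concentrations. The concentration for 50% growth inhibition is given as GI50. TGI is the concentration that stops growth completely.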

How the values were obtained:
Experiment in all cases: NCI tumour cell line growth inhibition, 48 h
[1] = tested on: T-47D breast
[2] = tested on: SF-268 CNS
[3] = tested on: MOLT-4 leukemia
[4] = tested on: HT29 colon
[5] = tested on: TK-10 renal
[6] = tested on: UACC-257 melanoma
[7] = tested on: SK-MEL-2 melanoma
[8] = tested on: NCI-H460 lung
[9] = tested on: SK-OV-3 ovarian
[10] = tested on: NCI-H23 lung
[11] = tested on: SN12C renal
[12] = tested on: NCI/ADR-RES ovarian
[13] = tested on: RPMI-8226 leukemia
[14] = tested on: HCT-15 colon
[15] = tested on: SNB-75 CNS
[16] = tested on: LOX IMVI melanoma
[17] = tested on: OVCAR-5 ovarian
[18] = tested on: HCT-116 colon
[19] = tested on: MALME-3M melanoma
[20] = tested on: HOP-62 NSCLC
[21] = tested on: MCF7 breast
[22] = tested on: COLO 205 colon
[23] = tested on: MDA-MB-435
[24] = tested on: SF-295 CNS
[25] = tested on: BT-549 breast
[26] = tested on: ACHN renal
[27] = tested on: CAKI-1 renal
[28] = tested on: EKVX NSCLC
[29] = tested on: 786-0 renal
[30] = tested on: SK-MEL-5 melanoma
[31] = tested on: U251 CNS
[32] = tested on: RXF 393 renal
[33] = tested on: HS 578T breast
[34] = tested on: SNB-19 CNS
[35] = tested on: NCI-H226 lung
[36] = tested on: M14 melanoma
[37] = tested on: UACC-62 melanoma
[38] = tested on: HCC-2998 colon
[39] = tested on: SW-620 colon
[40] = tested on: NCI-H522 lung
[41] = tested on: HL-60(TB) leukemia
[42] = tested on: IGROV1 ovarian
[43] = tested on: SK-MEL-28 melanoma
[44] = tested on: UO-31 renal
[45] = tested on: K-562 leukemia
[46] = tested on: OVCAR-8 ovarian
[47] = tested on: DU-145 prostate
[48] = tested on: OVCAR-4 ovarian
[49] = tested on: HOP-92 NSCLC
[50] = tested on: OVCAR-3 ovarian
[51] = tested on: PC-3 prostate
[52] = tested on: SF-539 CNS
[53] = tested on: KM12 colon
[54] = tested on: MDA-MB-231 breast
[55] = tested on: A498 renal

SMILES: COc1cc2c3c(n(CCCN)c(=O)c2cc1OC)-c1ccccc1C3=O
- GI50 [1]: 7180 nM
- TGI [1]: 39000 nM
- GI50 [2]: 1710 nM
- TGI [2]: > 21600 nM
- TGI [3]: 7120 nM
- GI50 [4]: 164 nM
- GI50 [5]: 2140 nM
- TGI [5]: 6310 nM
- GI50 [6]: 6300 nM
- TGI [6]: 27800 nM
- GI50 [7]: 14300 nM
- TGI [7]: 35500 nM
- GI50 [8]: 176 nM
- GI50 [9]: 5620 nM
- TGI [9]: 23000 nM
- GI50 [10]: 1250 nM
- TGI [10]: 6030 nM
- GI50 [11]: 934 nM
- TGI [11]: 5080 nM
- GI50 [12]: 2280 nM
- TGI [12]: 9750 nM
- GI50 [13]: 77.2 nM
- GI50 [14]: 1000 nM
- GI50 [15]: 4600 nM
- TGI [15]: 11600 nM
- GI50 [16]: 125 nM
- TGI [16]: 1020 nM
- GI50 [17]: 14300 nM
- TGI [17]: 29200 nM
- GI50 [18]: 10.1 nM
- TGI [18]: 172 nM
- GI50 [19]: 91.8 nM
- TGI [19]: 17500 nM
- GI50 [20]: 351 nM
- TGI [20]: 2960 nM
- GI50 [21]: 316 nM
- TGI [21]: 2110 nM
- GI50 [22]: 472 nM
- TGI [22]: 5720 nM
- GI50 [23]: 755 nM
- TGI [23]: 18900 nM
- GI50 [24]: 70.9 nM
- TGI [24]: 5240 nM
- GI50 [25]: 4850 nM
- TGI [25]: 13900 nM
- GI50 [26]: 1140 nM
- TGI [26]: 8100 nM
- GI50 [27]: 282 nM
- TGI [27]: 2940 nM
- GI50 [28]: 3850 nM
- TGI [28]: 10300 nM
- GI50 [29]: 396 nM
- TGI [29]: 2020 nM
- GI50 [30]: 2020 nM
- TGI [30]: 19800 nM
- GI50 [31]: 557 nM
- TGI [31]: 3430 nM
- GI50 [32]: 1040 nM
- TGI [32]: 2560 nM
- GI50 [33]: 11100 nM
- TGI [33]: 46900 nM
- GI50 [34]: 2950 nM
- TGI [34]: > 42000 nM
- GI50 [35]: 4310 nM
- TGI [35]: 16100 nM
- GI50 [36]: 199 nM
- TGI [36]: 2280 nM
- GI50 [37]: 1730 nM
- TGI [37]: 16000 nM
- GI50 [38]: 531 nM
- TGI [38]: 2110 nM
- GI50 [39]: 1890 nM
- TGI [39]: > 100000 nM
- GI50 [40]: 339 nM
- TGI [40]: 22700 nM
- GI50 [41]: 5090 nM
- TGI [41]: > 100000 nM
- GI50 [42]: 1450 nM
- TGI [42]: > 100000 nM
- GI50 [43]: 9990 nM
- TGI [43]: > 46800 nM
- GI50 [44]: 1800 nM
- TGI [44]: 13100 nM
- GI50 [45]: 911 nM
- GI50 [46]: 455 nM
- TGI [46]: 6650 nM
- GI50 [47]: 1830 nM
- TGI [47]: 4810 nM
- GI50 [48]: 2290 nM
- TGI [48]: 12700 nM
- GI50 [49]: 15200 nM
- TGI [49]: 36700 nM
- GI50 [50]: 260 nM
- TGI [50]: 4200 nM
- GI50 [51]: 723 nM
- TGI [51]: 2690 nM
- GI50 [52]: 1250 nM
- TGI [52]: 5230 nM
- GI50 [53]: 517 nM
- TGI [53]: 2500 nM
- GI50 [54]: 1230 nM
- TGI [54]: 3020 nM
- GI50 [55]: 1900 nM
- TGI [55]: 9510 nM
